Series [1] addresses T1, Renin (Homo sapiens, UniProt P00797).
T1 sequence (P00797 whole entry): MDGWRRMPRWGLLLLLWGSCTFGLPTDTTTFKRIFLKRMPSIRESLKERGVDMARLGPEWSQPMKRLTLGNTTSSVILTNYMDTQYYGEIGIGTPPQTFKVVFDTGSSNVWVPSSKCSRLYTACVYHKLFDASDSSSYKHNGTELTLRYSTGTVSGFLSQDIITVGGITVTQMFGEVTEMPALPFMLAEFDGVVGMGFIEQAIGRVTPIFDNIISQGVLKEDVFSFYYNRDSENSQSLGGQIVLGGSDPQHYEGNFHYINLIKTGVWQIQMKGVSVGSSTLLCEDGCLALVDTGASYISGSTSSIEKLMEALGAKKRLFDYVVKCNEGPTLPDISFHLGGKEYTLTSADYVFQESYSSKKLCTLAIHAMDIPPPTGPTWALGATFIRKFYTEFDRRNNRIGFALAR
Description: Inhibition of recombinant human renin using angiotensinogen as substrate pretreated for 10 mins followed by substrate addition measured after 30 mins in absence of human serum albumin by ELISA

Series [2] in a line: physchem. The settings on record: 1-octanol/aqueous buffer, pH 7.4.
Description: 1-octanol/aqueous buffer partition coefficient, log D of the compound at pH 7.4 by UV-vis/HPLC method
Series [3] concerns the target T1, Renin. The source holds these as a separate data set.
Description: Inhibition of recombinant human renin using angiotensinogen as substrate pretreated for 10 mins followed by substrate addition measured after 30 mins in presence of human serum albumin by ELISA
Series [4] is described as follows: in vivo. The settings on record: rat, po, 1 mg/kg.
The nature of series [5]: in vivo. The conditions noted are these: rat, iv.
Description: Clearance in rat at 0.1 mg/kg, iv or 1 mg/kg, po administered as cassette dose by LC-MS/MS analysis
The nature of series [6]: in vivo. The settings on record: rat, po, 1 mg/kg. This is another data set of the same source.
Series [7] in a line: in vivo. The conditions noted are these: rat, iv, 0.1 mg/kg.
Series [8] in a line: in vitro. The conditions noted are these: PAMPA, pH 7.4. (PAMPA measures passive passage across an artificial lipid membrane.)
Description: Permeability of the compound at pH 7.4 buffer after 3 hrs by PAMPA
The target of series [9] is T1, Renin. This is another data set of the same source.
Description: Inhibition of renin in human plasma by radioimmunoassay

As usually defined, the IC50 is the midpoint of a concentration-inhibition curve. The low end stands for greater potency, the high end for weaker potency. For orientation: logD means lipophilicity at a set pH, counting ionised and neutral species. A higher logD goes with a more lipophilic compound. With `COCCCCn1nc(-c2ccccc2)cc1C(=O)N(CC(C)C)[C@@H]1CNC[C@H](C(=O)N2CCOCC2)C1`, the 50% inhibitory concentration (IC50) in series [1] and in series [3] was > 100 nM in each case. The logD in [2] was 2.68.
For orientation: AUC means concentration integrated over time. Lower therefore signals low exposure. Broadly, the clearance is a measure of how efficiently the substance is removed, as volume per time. The low end stands for inefficient removal, the high end for efficient removal. The term bioavailability denotes dose-corrected exposure relative to a reference, in per cent. Read a high bioavailability as much systemic uptake. As a reminder, the Papp is a coefficient for how fast a substance crosses the barrier. `CC(C)CN(C(=O)c1nc2ccccc2[nH]1)[C@@H]1CNC[C@H](C(=O)N2CCOCC2)C1`: the half-inhibitory concentration (IC50) in series [1] is 0.76 nM; in [9] it was 4 nM; in series [3], 0.59 nM. Also, the exposure (AUC) in series [4] amounted to 41.7 ng·h/mL; in series [7] it was 50.7 ng·h/mL. For the same compound, the clearance in series [5] is 34.2 mL/min/kg. Moreover, the bioavailability in series [6] is 8.2%. The compound further gave a logD in series [2] of 1.74. For the same compound, in [8], the Papp at 3 h came out at 6 ×10⁻⁶ cm/s.
As to `COCCCCn1c(C(=O)N(CC(C)C)[C@@H]2CNC[C@H](CO)C2)nc2ccccc21`, the IC50 in series [1] was found to be 0.28 nM; in series [9] it was 1.5 nM; in series [3], 0.32 nM. The AUC in series [4] was determined as 103 ng·h/mL; in series [7], 108 ng·h/mL. In series [5], this compound gave a clearance of 15.5 mL/min/kg. This compound yielded a bioavailability in [6] of 9.6%. The compound further gave a logD in series [2] of 1.77. Also, the Papp at 3 h in [8] stood at 8.2 ×10⁻⁶ cm/s.
For the compound `COCCCCn1c(C(=O)N(CC(C)C)[C@@H]2CNC[C@H](C(=O)N3CCOCC3)C2)cnc1C(C)(C)C`, the concentration for half-maximal inhibition (IC50) in [1] was 48 nM; in [3], 35 nM. The compound also had a logD in series [2] of 2.12.
For the compound `COCCCCn1c(C(=O)N(CC(C)C)[C@@H]2CNC[C@H](C(=O)N3CCOCC3)C2)ccc1-c1ccccc1`, the IC50 in series [1] was 0.16 nM; in series [9] it was 3.4 nM; in [3] it was 1.4 nM. The area under the curve (AUC) in series [4] was found to be 18.5 ng·h/mL; in series [7], 34.6 ng·h/mL. In [5], this compound gave a clearance of 49.5 mL/min/kg. In series [6], this compound came in with a bioavailability of 5.4%. The compound also yielded a pH-dependent lipophilicity (logD) in series [2] of 3.08. Besides, the apparent permeability (Papp) at 3 h in series [8] is 21.7 ×10⁻⁶ cm/s.
As for `COCCCCn1c(C(=O)N(CC(C)C)[C@@H]2CNC[C@H](C(C)(C)O)C2)nc2ccccc21`, the IC50 in series [1] came out at 0.72 nM; in [9], 2.6 nM; in [3], 1.5 nM. In series [2], this compound came in with a log distribution coefficient (logD) of 1.98. This compound displayed an apparent permeability coefficient (Papp) at 3 h in [8] of 20.2 ×10⁻⁶ cm/s.
As for `COCCCCc1c(C(=O)N(CC(C)C)[C@@H]2CNC[C@H](C(=O)N3CCOCC3)C2)ncn1-c1ccccc1`, the IC50 in series [1] was 0.83 nM; in [9] it was 1.2 nM; in series [3], 1.1 nM. The compound further gave a clearance in series [5] of 127 mL/min/kg. In addition, in series [6], the bioavailability was < 1%. Moreover, the exposure (AUC) in series [7] worked out at 13.3 ng·h/mL. The compound further yielded a logD in [2] of 1.84. The compound further registered an apparent permeability (Papp) at 3 h in series [8] of 7.8 ×10⁻⁶ cm/s.
Consider `COCCCCc1c(C(=O)N(CC(C)C)[C@@H]2CNC[C@H](C(=O)N3CCOCC3)C2)nc2n1CCCC2`, for which the values for the half-maximal inhibitory concentration (IC50) in series [1], in [9] and in [3] were 2.2 nM, 3.3 nM and 2.7 nM, respectively.
As for `CCCCCNc1nc(C(C)(C)C)ncc1C(=O)N(CC(C)C)[C@@H]1CNC[C@H](C(=O)N2CCOCC2)C1`, the IC50 in series [1] turned out to be 0.2 nM; in [9], 5.4 nM; in series [3] it was 0.64 nM. Moreover, in series [5], the clearance is 62.4 mL/min/kg. In addition, the bioavailability in [6] was < 1%. The AUC in series [7] amounted to 27.3 ng·h/mL. In [2], the logD is 4.45. In [8], this compound had an apparent permeability coefficient (Papp) at 3 h of 25.2 ×10⁻⁶ cm/s.
In the case of `COCCCCn1c(C(=O)N(CC(C)C)[C@@H]2CNC[C@H](C(=O)N3CCOCC3)C2)cnc1-c1ccccc1`, the IC50 in series [1] was determined as 4.4 nM; in series [9], 2.8 nM; in [3], 3.3 nM. Moreover, in series [5], the clearance is 96.7 mL/min/kg. Further, the bioavailability in [6] was < 1%. In addition, the AUC in series [7] worked out at 17.6 ng·h/mL. Besides, the logD in [2] is 2.03. Besides, the apparent permeability coefficient (Papp) at 3 h in [8] was 7.2 ×10⁻⁶ cm/s.
Consider `COCCCCc1c(C(=O)N(CC(C)C)[C@@H]2CNC[C@H](C(=O)N3CCOCC3)C2)nc2ccccn12`, for which the figures for the IC50 in series [1], in [9] and in series [3] were 1.6 nM, 1.1 nM and 2.1 nM, respectively. Besides, the AUC is 9.5 ng·h/mL in [4] and 43.5 ng·h/mL in [7]. Further, the clearance in series [5] is 39 mL/min/kg. Also, in series [6], the bioavailability is 2.2%. In addition, the logD in [2] worked out at 1.54. The same compound yielded a Papp at 3 h in series [8] of 6.3 ×10⁻⁶ cm/s.
On to `COCCCOc1nc(C(C)(C)C)ncc1C(=O)N(CC(C)C)[C@@H]1CNC[C@H](C(=O)N2CCOCC2)C1`, for which the IC50 in [1] and in series [3] was > 100 nM in each case. Moreover, the log distribution coefficient (logD) in [2] came out at 2.81. The compound further yielded a Papp at 3 h in series [8] of 27.2 ×10⁻⁶ cm/s.
With `CCn1c(C(=O)N(CC(C)C)[C@@H]2CNC[C@H](CO)C2)nc2ccccc21`, the IC50 was 16 nM in series [1], > 10 nM in series [9] and 21 nM in series [3]. In addition, the log distribution coefficient (logD) in series [2] was determined as 1.73. For the same compound, the Papp at 3 h in series [8] turned out to be 5.5 ×10⁻⁶ cm/s.
With `COCCCCn1c(C(=O)N(CC(C)C)[C@H]2CCCNC2)nc2ccccc21`, the concentration for half-maximal inhibition (IC50) is 0.9 nM in series [1], 9.1 nM in [9] and 1.6 nM in [3]. The exposure (AUC) in [4] was found to be 59.7 ng·h/mL; in series [7] it was 52.1 ng·h/mL. Besides, the clearance in series [5] was 33 mL/min/kg. The compound also had a bioavailability in [6] of 12%. Further, in [2], the logD was found to be 2. Besides, the Papp at 3 h in [8] was found to be 32.4 ×10⁻⁶ cm/s.
With `COCCCCn1c(C(=O)N(CC(C)C)[C@@H]2CNC[C@H](C(=O)N3CCOCC3)C2)nnc1-c1ccccc1`, the half-inhibitory concentration (IC50) in [1] came to 1.4 nM; in series [9], 1.2 nM; in [3], 1.8 nM. This compound gave a clearance in series [5] of 112 mL/min/kg. In addition, in [6], the bioavailability is < 1%. For the same compound, the AUC in series [7] turned out to be 15.3 ng·h/mL. This compound also came in with a logD in [2] of 1.79. For the same compound, the Papp at 3 h in series [8] was found to be 11.6 ×10⁻⁶ cm/s.
As to `CCn1c(C(=O)N(CC(C)C)[C@@H]2CNC[C@H](C(=O)N3CCOCC3)C2)nc2ccccc21`, the values for the IC50 in series [1], in series [9] and in series [3] were 0.66 nM, 1.3 nM and 0.89 nM, respectively. The exposure (AUC) in [4] came out at 58.9 ng·h/mL; in series [7], 43.4 ng·h/mL. Besides, the clearance in series [5] is 38.5 mL/min/kg. This compound also came in with a bioavailability in [6] of 14%. This compound also came in with a logD in series [2] of 1.79. In addition, the Papp at 3 h in [8] is 24.2 ×10⁻⁶ cm/s.
Consider `CC(C)CN(C(=O)c1nc2ccccc2n1C)[C@@H]1CNC[C@H](C(=O)N2CCOCC2)C1`, for which the figures for the IC50 in series [1], in series [9] and in series [3] were 0.63 nM, 2.9 nM and 0.66 nM, respectively. Further, the area under the curve (AUC) in series [4] was 74.2 ng·h/mL; in [7], 43.9 ng·h/mL. The same compound showed a clearance in [5] of 38.9 mL/min/kg. The same compound registered a bioavailability in series [6] of 17%. The same compound had a logD in series [2] of 1.71. The compound also came in with a Papp at 3 h in [8] of 27.4 ×10⁻⁶ cm/s.
For the compound `COCCCCc1c(C(=O)N(CC(C)C)[C@@H]2CNC[C@H](C(=O)N3CCOCC3)C2)cnn1-c1ccccc1`, the values for the IC50 in series [1], in series [9] and in series [3] were 1.1 nM, 1.3 nM and 1.2 nM, respectively. The AUC was 0.7 ng·h/mL in series [4] and 20.8 ng·h/mL in [7]. For the same compound, the clearance in [5] was 80.4 mL/min/kg. Further, the bioavailability in series [6] was found to be 0.3%. The compound further registered a log distribution coefficient (logD) in [2] of 1.78. In series [8], this compound had a Papp at 3 h of 7.8 ×10⁻⁶ cm/s.
`COCCCCn1nc(C(C)(C)C)cc1C(=O)N(CC(C)C)[C@@H]1CNC[C@H](C(=O)N2CCOCC2)C1`: the IC50 was 2 nM in [1] and 3.6 nM in [3]. The logD in series [2] amounted to 2.73.
`COCCCCc1c(C(=O)N(CC(C)C)[C@@H]2CNC[C@H](C(=O)N3CCOCC3)C2)nnn1-c1ccccc1`: the IC50 in [1] is 1 nM; in [9], 0.4 nM; in [3], 0.65 nM. In addition, the values for the area under the curve (AUC) in series [4] and in [7] were 3.5 ng·h/mL and 18.4 ng·h/mL, respectively. The compound also showed a clearance in [5] of 92.4 mL/min/kg. Besides, the bioavailability in series [6] is 1.9%. The same compound registered a logD in series [2] of 1.94. This compound also showed an apparent permeability coefficient (Papp) at 3 h in [8] of 36.9 ×10⁻⁶ cm/s.

The values are drawn from ChEMBL document CHEMBL4118173, “Discovery of benzimidazole derivatives as orally active renin inhibitors: Optimization of 3,5-disubstituted piperidine to improve pharmacokinetic profile” (Bioorg Med Chem, 2018).
